Laboratory results taken from patent US20220046923A1, “HERBICIDAL CINNOLINIUM COMPOUNDS” (SYNGENTA CROP PROTECTION AG, priority 2018, published 2022).

What was measured:
Experiment in all cases: Post-emergence efficacy, glasshouse spray test
Format in all cases: in vivo
[1] = test system: Euphorbia heterophylla (EPHHL); conditions: evaluated after 13 days; for pest or weed control at 1000 g/ha / pest or weed control at 500 g/ha: Euphorbia heterophylla, post-emergence, 312 h, read-out: Control of weed species EPHHL after post-emergence application (100=total damage to plant; 0=no damage to plant)
In short: (§1)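 Post-emergence spray, 14-d-old pot plants; glasshouse 24/16 °C d/n, 14 h light, 65% RH, watered twice daily. Read-out: % damage at 13 d.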

[2] = test system: Echinochloa crus-galli (ECHCG); conditions: evaluated after 13 days; for pest or weed control at 1000 g/ha / pest or weed control at 500 g/ha: Echinochloa crus-galli, post-emergence, 312 h, read-out: Control of weed species ECHCG after post-emergence application (100=total damage to plant; 0=no damage to plant)
In short: as §1

[3] = test system: Ipomoea hederacea (IPOHE); conditions: evaluated after 13 days; for pest or weed control at 1000 g/ha / pest or weed control at 500 g/ha: Ipomoea hederacea, post-emergence, 312 h, read-out: Control of weed species IPOHE after post-emergence application (100=total damage to plant; 0=no damage to plant)
In short: as §1

[4] = test system: Amaranthus palmeri (AMAPA); conditions: evaluated after 13 days; for pest or weed control at 1000 g/ha / pest or weed control at 500 g/ha: Amaranthus palmeri, post-emergence, 312 h, read-out: Control of weed species AMAPA after post-emergence application (100=total damage to plant; 0=no damage to plant)
In short: as §1

Eleusine indica (ELEIN) = conditions: evaluated after 13 days; for pest or weed control at 1000 g/ha / pest or weed control at 500 g/ha: Eleusine indica, post-emergence, 312 h, read-out: Control of weed species ELEIN after post-emergence application (100=total damage to plant; 0=no damage to plant)
In short: as §1

[5] = test system: Digitaria sanguinalis (DIGSA); conditions: evaluated after 13 days; for pest or weed control at 1000 g/ha / pest or weed control at 500 g/ha: Digitaria sanguinalis, post-emergence, 312 h, read-out: Control of weed species DIGSA after post-emergence application (100=total damage to plant; 0=no damage to plant)
In short: as §1

[6] = test system: Chenopodium album (CHEAL); conditions: evaluated after 13 days; for pest or weed control at 1000 g/ha / pest or weed control at 500 g/ha: Chenopodium album, post-emergence, 312 h, read-out: Control of weed species CHEAL after post-emergence application (100=total damage to plant; 0=no damage to plant)
In short: as §1

Setaria faberi (SETFA) = conditions: evaluated after 13 days; for pest or weed control at 1000 g/ha / pest or weed control at 500 g/ha: Setaria faberi, post-emergence, 312 h, read-out: Control of weed species SETFA after post-emergence application (100=total damage to plant; 0=no damage to plant)
In short: as §1

Lolium perenne (LOLPE) = conditions: evaluated after 13 days; for pest or weed control at 1000 g/ha / pest or weed control at 500 g/ha: Lolium perenne, post-emergence, 312 h, read-out: Control of weed species LOLPE after post-emergence application (100=total damage to plant; 0=no damage to plant)
In short: as §1

Compound	pest or weed control at 1000 g/ha ([1]; application rate 1000 g/Ha)	pest or weed control at 1000 g/ha ([2]; application rate 1000 g/Ha)	pest or weed control at 1000 g/ha ([3]; application rate 1000 g/Ha)	pest or weed control at 1000 g/ha ([4]; application rate 1000 g/Ha)	pest or weed control at 1000 g/ha (Eleusine indica (ELEIN); application rate 1000 g/Ha)	pest or weed control at 1000 g/ha ([5]; application rate 1000 g/Ha)	pest or weed control at 1000 g/ha ([6]; application rate 1000 g/Ha)	pest or weed control at 1000 g/ha (Setaria faberi (SETFA); application rate 1000 g/Ha)	pest or weed control at 1000 g/ha (Lolium perenne (LOLPE); application rate 1000 g/Ha)	other results
COc1ccc2cc[n+](CCS(=O)(=O)[O-])nc2c1 [Compound A85]	80%	20%	70%	100%	40%	20%	100%	30%	20%	
COc1cccc2cc[n+](CCS(=O)(=O)[O-])nc12 [Compound A86]	90%	50%	90%	100%	80%	40%	100%	50%	60%	
Cc1ccc2cc[n+](CCS(=O)(=O)[O-])nc2c1 [Compound A87]	100%	40%	70%	100%	80%	40%	100%	50%	40%	
O=S(=O)([O-])CC[n+]1ccc2cc(Cl)ccc2n1 [Compound A88]	60%	20%	20%	70%	50%	50%	40%	40%	30%	
O=C(O)c1ccc(C[n+]2ccc3ccccc3n2)cc1 [Compound A89]	40%	0%	20%	20%	0%	0%	0%	0%	0%	
O=S(=O)(O)c1cccc(C[n+]2ccc3ccccc3n2)c1 [Compound A93, 3-(cinnolin-2-ium-2-ylmethyl)benzenesulfonic Acid]										Control of weed species EPHHL after post-emergence application (100=total damage to plant; 0=no damage to plant) ([1]; application rate 1000 g/Ha): 50; Control of weed species ECHCG after post-emergence application (100=total damage to plant; 0=no damage to plant) ([2]; application rate 1000 g/Ha): 20; Control of weed species IPOHE after post-emergence application (100=total damage to plant; 0=no damage to plant) ([3]; application rate 1000 g/Ha): 40; Control of weed species AMAPA after post-emergence application (100=total damage to plant; 0=no damage to plant) ([4]; application rate 1000 g/Ha): 10; Control of weed species ELEIN after post-emergence application (100=total damage to plant; 0=no damage to plant) (Eleusine indica (ELEIN); application rate 1000 g/Ha): 10; Control of weed species DIGSA after post-emergence application (100=total damage to plant; 0=no damage to plant) ([5]; application rate 1000 g/Ha): 20; Control of weed species CHEAL after post-emergence application (100=total damage to plant; 0=no damage to plant) ([6]; application rate 1000 g/Ha): 10; Control of weed species SETFA after post-emergence application (100=total damage to plant; 0=no damage to plant) (Setaria faberi (SETFA); application rate 1000 g/Ha): 20; Control of weed species LOLPE after post-emergence application (100=total damage to plant; 0=no damage to plant) (Lolium perenne (LOLPE); application rate 1000 g/Ha): 10
O=S(=O)([O-])CC[n+]1ccc2ccc(Cl)cc2n1 [Compound A94]	100%	40%	40%	100%	90%	50%	90%	50%	40%	
O=S(=O)([O-])CC[n+]1ccc2cccc(C(F)(F)F)c2n1 [Compound A95]	50%	10%	10%	40%	10%	10%	50%	10%	0%	
O=S(=O)([O-])CC[n+]1ccc2c(Cl)cccc2n1 [Compound A96]	100%	40%	20%	70%	60%	60%	100%	30%	40%	
Cc1cccc2n[n+](CCS(=O)(=O)[O-])ccc12 [Compound A97]										pest or weed control at 500 g/ha ([1]; application rate 500 g/Ha): 80%; pest or weed control at 500 g/ha ([2]; application rate 500 g/Ha): 30%; pest or weed control at 500 g/ha ([3]; application rate 500 g/Ha): 10%; pest or weed control at 500 g/ha ([4]; application rate 500 g/Ha): 100%; pest or weed control at 500 g/ha (Eleusine indica (ELEIN); application rate 500 g/Ha): 70%; pest or weed control at 500 g/ha ([5]; application rate 500 g/Ha): 50%; pest or weed control at 500 g/ha ([6]; application rate 500 g/Ha): 90%; pest or weed control at 500 g/ha (Setaria faberi (SETFA); application rate 500 g/Ha): 60%; pest or weed control at 500 g/ha (Lolium perenne (LOLPE); application rate 500 g/Ha): 10%
O=S(=O)([O-])CC[n+]1ccc2cc(C(F)(F)F)ccc2n1 [Compound A98]										pest or weed control at 500 g/ha ([1]; application rate 500 g/Ha): 40%; pest or weed control at 500 g/ha ([2]; application rate 500 g/Ha): 10%; pest or weed control at 500 g/ha ([3]; application rate 500 g/Ha): 0%; pest or weed control at 500 g/ha ([4]; application rate 500 g/Ha): 0%; pest or weed control at 500 g/ha (Eleusine indica (ELEIN); application rate 500 g/Ha): 20%; pest or weed control at 500 g/ha ([5]; application rate 500 g/Ha): 10%; pest or weed control at 500 g/ha ([6]; application rate 500 g/Ha): 30%; pest or weed control at 500 g/ha (Setaria faberi (SETFA); application rate 500 g/Ha): 0%; pest or weed control at 500 g/ha (Lolium perenne (LOLPE); application rate 500 g/Ha): 10%
CCOP(=O)(CC[n+]1ccc2ccccc2n1)OCC.[Br-] [Compound A99]										Control of weed species EPHHL after post-emergence application (100=total damage to plant; 0=no damage to plant) ([1]; application rate 500 g/Ha): 40; Control of weed species ECHCG after post-emergence application (100=total damage to plant; 0=no damage to plant) ([2]; application rate 500 g/Ha): 40; Control of weed species IPOHE after post-emergence application (100=total damage to plant; 0=no damage to plant) ([3]; application rate 500 g/Ha): 10; Control of weed species AMAPA after post-emergence application (100=total damage to plant; 0=no damage to plant) ([4]; application rate 500 g/Ha): 10; Control of weed species ELEIN after post-emergence application (100=total damage to plant; 0=no damage to plant) (Eleusine indica (ELEIN); application rate 500 g/Ha): 30; Control of weed species DIGSA after post-emergence application (100=total damage to plant; 0=no damage to plant) ([5]; application rate 500 g/Ha): 50; Control of weed species CHEAL after post-emergence application (100=total damage to plant; 0=no damage to plant) ([6]; application rate 500 g/Ha): 20; Control of weed species SETFA after post-emergence application (100=total damage to plant; 0=no damage to plant) (Setaria faberi (SETFA); application rate 500 g/Ha): 50; Control of weed species LOLPE after post-emergence application (100=total damage to plant; 0=no damage to plant) (Lolium perenne (LOLPE); application rate 500 g/Ha): 20
COC(=O)c1ccc2n[n+](CCS(=O)(=O)[O-])ccc2c1 [Compound A100]										pest or weed control at 500 g/ha ([1]; application rate 500 g/Ha): 40%; pest or weed control at 500 g/ha ([2]; application rate 500 g/Ha): 10%; pest or weed control at 500 g/ha ([3]; application rate 500 g/Ha): 30%; pest or weed control at 500 g/ha ([4]; application rate 500 g/Ha): 30%; pest or weed control at 500 g/ha (Eleusine indica (ELEIN); application rate 500 g/Ha): 10%; pest or weed control at 500 g/ha ([5]; application rate 500 g/Ha): 10%; pest or weed control at 500 g/ha ([6]; application rate 500 g/Ha): 30%; pest or weed control at 500 g/ha (Setaria faberi (SETFA); application rate 500 g/Ha): 20%; pest or weed control at 500 g/ha (Lolium perenne (LOLPE); application rate 500 g/Ha): 0%
CCOP(=O)(O)CC[n+]1ccc2ccccc2n1 [Compound A103]										pest or weed control at 500 g/ha ([1]; application rate 500 g/Ha): 40%; pest or weed control at 500 g/ha ([2]; application rate 500 g/Ha): 30%; pest or weed control at 500 g/ha ([3]; application rate 500 g/Ha): 20%; pest or weed control at 500 g/ha ([4]; application rate 500 g/Ha): 20%; pest or weed control at 500 g/ha (Eleusine indica (ELEIN); application rate 500 g/Ha): 30%; pest or weed control at 500 g/ha ([5]; application rate 500 g/Ha): 60%; pest or weed control at 500 g/ha ([6]; application rate 500 g/Ha): 0%; pest or weed control at 500 g/ha (Setaria faberi (SETFA); application rate 500 g/Ha): 60%; pest or weed control at 500 g/ha (Lolium perenne (LOLPE); application rate 500 g/Ha): 20%
